# Values quoted from earlier work as cited in patent US20110236307A1, “IN VIVO IMAGING METHOD” (priority 2008, published 2011).
# System: protein deposition in PD
# Conditions: PD patients, brain
smiles,measurement,value
"[11CH3]Nc1ccc(-c2nc3ccc(O)cc3s2)cc1 [[^11C]PIB, ^11C-6-OH-benzothiazole]",in vivo binding pattern,decreased from the brainstem to the cortical areas
